Assay [1] has as its target T1, human serum SSAO (Homo sapiens, UniProt Q16853).
T1 construct: from tissue; host or cells: human serum
T1 sequence (Q16853 29-763 limits assumed): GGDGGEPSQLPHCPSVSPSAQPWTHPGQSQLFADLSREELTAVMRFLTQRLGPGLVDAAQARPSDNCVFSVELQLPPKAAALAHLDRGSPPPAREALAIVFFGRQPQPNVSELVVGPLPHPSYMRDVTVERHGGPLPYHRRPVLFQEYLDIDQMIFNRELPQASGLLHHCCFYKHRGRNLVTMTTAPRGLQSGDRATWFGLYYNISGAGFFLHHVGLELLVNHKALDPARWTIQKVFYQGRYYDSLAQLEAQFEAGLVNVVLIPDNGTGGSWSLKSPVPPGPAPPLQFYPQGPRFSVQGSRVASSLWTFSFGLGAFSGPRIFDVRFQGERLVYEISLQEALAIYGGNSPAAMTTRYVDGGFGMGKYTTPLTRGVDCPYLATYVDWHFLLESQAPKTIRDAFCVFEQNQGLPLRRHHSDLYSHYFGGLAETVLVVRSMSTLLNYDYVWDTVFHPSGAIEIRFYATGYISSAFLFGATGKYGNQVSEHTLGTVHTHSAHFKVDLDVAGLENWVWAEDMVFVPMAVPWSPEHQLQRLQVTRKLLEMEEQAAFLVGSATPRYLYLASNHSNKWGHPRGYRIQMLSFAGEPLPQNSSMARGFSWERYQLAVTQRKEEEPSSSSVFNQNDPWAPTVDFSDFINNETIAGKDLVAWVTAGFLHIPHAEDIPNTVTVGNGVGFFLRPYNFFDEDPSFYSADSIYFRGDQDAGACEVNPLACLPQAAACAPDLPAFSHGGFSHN
Put plainly: radiochemical determination of SSAO activity in human serum (14C-benzylamine substrate). It counts as biochemical. To be noted: 20 min pre-incubation at room temperature, 37°C 40 min. The procedure: In the experiment human serum was used in the following way: blood samples were collected without anticoagulant, then stored at 4°C for 15 minutes and centrifuged (4°C, 2500 g/10 min). The supernatant was stored at -80°C until the measurement of the enzyme activity.
A radiochemical procedure (Yu P.H., Zuo D.M., Biochem. Pharmacol., 1992, 43, 307-312) was adapted for determining SSAO activities in the human serum. It is based on the determination of the quantity of ^14C-benzaldehyde formed by the enzyme reaction of ^14C-benzylamine.
The preparations containing the serum and the dihydralazine enzyme inhibitor were pre-incubated at room temperature for 20 min. The enzyme reaction was started with ^14C-benzylamine substrate (- 200000 dpm/tube). […] The enzyme activity was determined by liquid scintillation counting (600 µl supernatant + 5ml Aquasafe), using the formula below: ([dpm(sample)-dpm0ʹ] x 1.6 x 10 x 1.5)/(measured substrate activity dpm x mg protein) [formula] standing for: 1.6: extraction volume; 10: molar activity; 1.5: correction factor for the incubation time; dpm: disintegrations per minute (unit of radioactivity)
The inhibition was calculated in the % inhibition compared to the control ('control' sample not containing the inhibitor compound) after correction with the background ('blank' sample). […]

The subject of assay [2] is macular edema. Put plainly: macular edema of type 2 diabetic patients, retinal thickness by optical coherency tomography (OCT). It counts as in vivo, human. On the set-up: OCT CPT (center point thickness): unit not given beside the values. To be noted: for OCT CPT (center point thickness) / OCT CST (central subfield thickness): oral 14.5 mg dihydralazine sulphate twice daily. The procedure:
The effect of orally administered low dose dihydralazine on macular edema and serum SSAO activity was studied in type 2 diabetic patients in an early stage of macular edema formation.
After giving their informed consent, patients participating in the study were treated for 56 days taking ½ tablet twice daily of a pharmaceutical composition containing 28.9 mg dihydralazine sulphate (i.e. the ½ tablet contained 14.5 mg dihydralazine sulphate).
To measure the efficacy and monitor the safety of the treatment, the following examinations were carried out before starting the treatment and at the 1., 7., 14., 28. and 56. day of the treatment: • 1. ocular examinations: visual acuity (ETDRS chart), slit-lamp examination, measurement of intraocular pressure with applanation tonometry, fundus biomicroscopy with pupil dilation, digital fundus photography. The grade of macular edema was determined via measuring retinal thickness with optical coherency tomography (OCT). • 2. internal medicine examinations: anamnesis, physical examinations, blood pressure, pulse, urine examination. • 3. laboratory examinations: blood glucose, HbA1c, liver function, kidney function, microalbuminuria, metabolic panel of the blood , lipids, CRP.
In the table the following abbreviations were used: • BMI: body mass index - weight (kg) / height (m^2) • RRsyst: blood pressure (systolic) (Hgmm) • RRdiast: blood pressure (diastolic) (Hgmm) • OCT CST (central subfield thickness): the average thickness of the central 1-mm area of the macula • OCT CPT (center point thickness): the thickness of the center point of the retina; normally that is the thinnest point of the macula Table 4.

The source of these data is patent publication EP2326328B1, “USE OF DIHYDRALAZINE FOR THE TREATMENT OF DISEASES RELATED TO ELEVATED SEMICARBAZIDE SENSITIVE AMINE-OXIDASE (SSAO) ACTIVITY” (Semmelweis Egyetem, priority 2008, dated 2010).

The IC20 is the point of the concentration-response curve where the effect stands at 20%. In assay [1], `NNc1nnc(NN)c2ccccc12` [dihydralazine] came in with an IC20 of 500 nM. The “OCT CPT (center point thickness)” value in assay [2] (1. patient, 14. day, before treatment 272) was determined as 215; in assay [2] (1. patient, 28. day, before treatment 272), 219; in assay [2] (1. patient, 56. day, before treatment 272), 209; in assay [2] (2. patient, 14. day, before treatment 257), 319; in assay [2] (2. patient, 28. day, before treatment 257), 239; in assay [2] (2. patient, 56. day, before treatment 257) it was 201. Besides, the “OCT CST (central subfield thickness)” value in assay [2] (1. patient, 14. day, before treatment 298) was 266; in assay [2] (1. patient, 28. day, before treatment 298), 273; in assay [2] (1. patient, 56. day, before treatment 298), 265; in assay [2] (2. patient, 14. day, before treatment 302) it was 323; in assay [2] (2. patient, 28. day, before treatment 302), 286; in assay [2] (2. patient, 56. day, before treatment 302) it was 252. For the same compound, in assay [2] (2 treated type 2 diabetic patients, oral 14.5 mg dihydralazine sulphate twice daily for 56 days), the macular edema entry is given as “significant decrease of the macular edema was observed in the fovea”.
